Reference: patent US20070207946A1, “Dipeptidyl peptidase IV inhibitors and their uses for lowering blood pressure levels” (priority 2001, published 2007)
Where two headings read alike, the source gives them in different places. Square brackets hold non-standard residues; d marks the D form. Peptide text beside a SMILES is read from it. * marks the point of attachment. pY = N[C@@H](Cc1ccc(OP(=O)(O)O)cc1)C(=O)O; aIle = CC[C@@H](C)[C@H](N)C(=O)O; Aoc(2) = CCCCCC[C@H](N)C(=O)O; Tle = CC(C)(C)[C@H](N)C(=O)O; Orn = NCCC[C@H](N)C(=O)O; Aze = O=C(O)[C@@H]1CCN1; Nva = CCC[C@H](N)C(=O)O; Abu = CC[C@H](N)C(=O)O; Bn = c1ccc(C*)cc1

Experiments:
purified porcine DPIV = purified porcine DPIV (Sus scrofa, UniProt P22411); assay: Determination of IC50 values (DPIV, Gly-Pro-pNA); format: biochemical; details: Gly-Pro-pNA 0.4 mM, HEPES pH7.6, 30° C.
Chain of purified porcine DPIV (P22411 whole entry): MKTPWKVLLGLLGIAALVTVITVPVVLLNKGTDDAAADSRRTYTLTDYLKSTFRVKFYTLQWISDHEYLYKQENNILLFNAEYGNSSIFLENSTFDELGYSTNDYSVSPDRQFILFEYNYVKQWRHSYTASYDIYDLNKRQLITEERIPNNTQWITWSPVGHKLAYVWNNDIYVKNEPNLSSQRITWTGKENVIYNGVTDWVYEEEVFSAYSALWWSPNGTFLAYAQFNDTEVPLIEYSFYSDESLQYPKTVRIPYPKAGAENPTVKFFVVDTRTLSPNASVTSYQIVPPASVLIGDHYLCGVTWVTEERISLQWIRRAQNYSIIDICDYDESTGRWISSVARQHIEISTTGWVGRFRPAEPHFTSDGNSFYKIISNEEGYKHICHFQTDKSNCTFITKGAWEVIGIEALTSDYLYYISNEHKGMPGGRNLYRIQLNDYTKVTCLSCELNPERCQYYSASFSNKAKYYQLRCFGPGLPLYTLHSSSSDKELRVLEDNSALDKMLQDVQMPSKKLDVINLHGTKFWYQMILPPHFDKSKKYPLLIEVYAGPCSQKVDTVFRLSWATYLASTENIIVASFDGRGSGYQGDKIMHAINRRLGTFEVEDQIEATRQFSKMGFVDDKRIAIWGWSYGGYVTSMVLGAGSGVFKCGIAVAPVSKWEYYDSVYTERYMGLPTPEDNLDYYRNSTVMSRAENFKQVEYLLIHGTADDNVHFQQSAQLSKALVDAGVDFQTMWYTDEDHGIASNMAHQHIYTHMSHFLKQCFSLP
Procedure: 100 μl inhibitor stock solution were mixed with 100 μl buffer (HEPES pH7.6) and 50 μl substrate (Gly-Pro-pNA, final concentration 0.4 mM) and preincubated at 30° C. Reaction was started by addition of 20 μl purified porcine DPIV. Formation of the product pNA was measured at 405 nm over 10 min using the HTS 7000Plus plate reader (Perkin Elmer) and slopes were calculated. The final inhibitor concentrations ranged between 1 mM and 30 nM. For calculation of IC50 GraFit 4.0.13 (Erithacus Software) was used.

[1] = molecular target: T1, dipeptidyl peptidase IV from porcine kidney (Sus scrofa, UniProt P22411); assay: Ki determination of DPIV inhibition; format: biochemical; details: substrate glycylprolyl-4-nitroaniline, HEPES pH7.6, 30° C.
T1 construct: dipeptidyl peptidase IV from porcine kidney; from tissue; host or cells: porcine kidney
T1 sequence (P22411 whole entry): as above

PepT1 [2] = molecular target: T2, PepT1 (Oryctolagus cuniculus, UniProt P36836); assay: Transport characteristics at PepT1-expressing oocytes of X. leavis, two-electrode voltage clamp; format: cell-based
T2 sequence (P36836 1-707): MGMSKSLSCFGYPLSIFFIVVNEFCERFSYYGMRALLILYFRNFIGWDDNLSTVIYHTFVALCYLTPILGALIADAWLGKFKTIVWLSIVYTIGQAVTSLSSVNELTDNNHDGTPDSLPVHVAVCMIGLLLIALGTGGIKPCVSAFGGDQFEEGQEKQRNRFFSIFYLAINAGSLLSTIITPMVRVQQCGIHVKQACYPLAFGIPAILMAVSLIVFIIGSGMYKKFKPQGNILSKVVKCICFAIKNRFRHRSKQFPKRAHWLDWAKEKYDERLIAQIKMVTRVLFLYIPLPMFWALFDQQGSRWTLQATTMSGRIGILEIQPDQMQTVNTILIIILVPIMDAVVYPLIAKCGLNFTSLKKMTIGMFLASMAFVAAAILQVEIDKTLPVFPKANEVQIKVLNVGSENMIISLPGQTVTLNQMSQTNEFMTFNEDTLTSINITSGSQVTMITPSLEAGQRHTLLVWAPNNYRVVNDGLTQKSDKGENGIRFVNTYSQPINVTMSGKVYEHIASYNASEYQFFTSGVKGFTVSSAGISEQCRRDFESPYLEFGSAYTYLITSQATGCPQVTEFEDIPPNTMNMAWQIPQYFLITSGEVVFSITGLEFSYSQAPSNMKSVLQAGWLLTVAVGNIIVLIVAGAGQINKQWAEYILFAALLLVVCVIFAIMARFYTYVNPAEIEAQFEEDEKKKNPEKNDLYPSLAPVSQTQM
Source text: (§1) Side chain-modified glutamyl thiazolidines having a structure H-Glu(X)-Thia were synthesised, with polyethylene glycol or glycine oligomers of various chain lengths being used as X (see Method A of example for description of synthesis). The binding characteristics of those derivatives and their transportability by the peptide transporter PepT1 were investigated.

F344 rats = assay: Chronic intragastric infusion via osmotic minipumps over two weeks - blood pressure; format: in vivo, rat
Procedure: Reduced expression of the ectopeptidase DPIV and lack of DPIV-like activity in mutant F344 rats lacking DPIV enzymic activity and expression results in a lowered blood pressure. Mutant F344 substrains lacking DPIV enzymic activity and wild-type-like F344 were tested.

plasma DPIV activity = molecular target: T3, plasma DPIV activity (Rattus norvegicus, UniProt P14740); assay: DPIV inhibiting activity after intravasal and oral administration to Wistar rats; format: in vivo; details: for in vivo DPIV-inhibition at tmax, i.v. / in vivo DPIV-inhibition at tmax, p.o.: dose 100 mg/kg; for inhibition at 100 mg/kg: rat
T3 construct: from tissue; host or cells: plasma of Wistar rats
T3 sequence (P14740 38-767 limits assumed): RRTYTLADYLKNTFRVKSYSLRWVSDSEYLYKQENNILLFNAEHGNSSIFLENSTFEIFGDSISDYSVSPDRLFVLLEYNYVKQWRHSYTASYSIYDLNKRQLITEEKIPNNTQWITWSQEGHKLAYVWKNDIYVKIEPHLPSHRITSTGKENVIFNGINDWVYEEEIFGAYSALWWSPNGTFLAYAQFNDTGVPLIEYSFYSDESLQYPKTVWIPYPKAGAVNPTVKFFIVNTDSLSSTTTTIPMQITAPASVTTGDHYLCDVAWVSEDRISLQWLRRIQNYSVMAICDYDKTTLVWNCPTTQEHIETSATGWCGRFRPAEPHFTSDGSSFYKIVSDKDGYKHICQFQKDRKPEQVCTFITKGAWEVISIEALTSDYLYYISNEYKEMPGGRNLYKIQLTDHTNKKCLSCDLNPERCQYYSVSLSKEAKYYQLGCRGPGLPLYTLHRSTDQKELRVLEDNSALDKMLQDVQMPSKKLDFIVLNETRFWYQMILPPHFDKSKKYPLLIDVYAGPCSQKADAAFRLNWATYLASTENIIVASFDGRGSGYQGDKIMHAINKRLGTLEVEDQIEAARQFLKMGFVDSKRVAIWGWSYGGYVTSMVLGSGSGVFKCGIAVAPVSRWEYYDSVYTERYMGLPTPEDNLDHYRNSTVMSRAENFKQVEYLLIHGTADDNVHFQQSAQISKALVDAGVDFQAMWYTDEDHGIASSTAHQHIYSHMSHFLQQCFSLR
Procedure: Male Wistar rats (Shoe: Wist(Sho)) with a body weight ranging between 250 and 350 g were purchased from Tierzucht Schönwalde (Schönwalde, Germany).
Animals were single-caged under conventional conditions with controlled temperature (22±2° C.) on a 12/12 hours light/dark cycle (light on at 06:00 AM). Standard pelleted chow (ssniff® Soest, Germany) and tap water acidified with HCl were allowed ad libitum.
After ≧one week of adaptation at the housing conditions, catheters were implanted into the carotid artery of Wistar rats under general anaesthesia (i.p. injection of 0.25 ml/kg b.w. Rompun® [2%], BayerVital, Germany and 0.5 ml/kg b.w. Ketamin 10, Atarost GmbH & Co., Twistringen, Germany). The animals were allowed to recover for one week. The catheters were flushed with heparin-saline (100 IU/ml) three times per week. In case of catheter dysfunction, a second catheter was inserted into the contra-lateral carotid artery of the respective rat. After one week of recovery from surgery, this animal was reintegrated into the study. In case of dysfunction of the second catheter, the animal was withdrawn from the study. A new animal was recruited and the experiments were continued in the planned sequence, beginning at least 7 days after catheter implantation.
After overnight fasting, 100 μl samples of heparinised arterial blood were collected at −30, −5, and 0 min. […] In the case of oral administration, an additional volume of 1 ml saline was injected into the arterial catheter. In the case of infra-arterial administration, the catheter was immediately flushed with 30 μl saline and an additional 1 ml of saline was given orally via the feeding tube.
All blood samples were collected into ice cooled Eppendorf tubes (Eppendorf-Netheler-Hinz, Hamburg, Germany) filled with 10 μl 1M sodium citrate buffer (pH 3.0) for plasma DPIV activity measurement. Eppendorf tubes were centrifuged immediately (12000 rpm for 2 min, Hettich Zentrifuge EBA 12, Tuttlingen; Germany): The plasma fractions were stored on ice until analysis or were frozen at −20° C. until analysis. All plasma samples were labelled with the following data:
The assay mixture for determination of plasma DPIV activity consisted of 80 μl reagent and 20 μl plasma sample. […] The DPIV activity was expressed in mU/ml.
All parameters were analysed in a descriptive manner including mean and SD.

PepT1 [3] = molecular target: T2, PepT1; assay: Inhibition of binding of 3H-D-Phe-Ala to PepT1-expressing P. pastoris cells; details: read-out: EC50: concentration inhibiting the binding of 3H-D-Phe-Ala to PepT1-expressing P. pastoris cells by 50%
Source text: as §1

[4] = intra-vasal (intra-arterial) route

Row | IC50 (purified porcine DPIV) [µM] | Ki [1] [µM] | Compound | further results
1 | 0.579 | 0.0476 | CC(=O)C1CCCN1C(=O)C(N)C(C)C (stereo not drawn) [Val-Pro-methyl ketone] | 
2 | 273 | 273 | CC(C)(C)C(N)C(=O)C1CCCCC1 (stereo not drawn) [t-butyl-Gly-cyclohexyl ketone] | 
3 | 112 |  | CC(C)[C@@H](NC(=O)[C@@H]1CCCN1C(=O)[C@@H](N)C(C)(C)C)C(=O)O [t-butyl-Gly-Pro-D-Val] (H-[Tle]-Pro-[dV]-OH; N-terminus and C-terminus assumed) | 
4 | 216 |  | CC[C@H](C)[C@H](NC(=O)[C@@H]1CCCN1C(=O)[C@@H](N)CCCN)C(=O)O [Orn-Pro-Ile] (H-[Orn]-Pro-Ile-OH; N-terminus and C-terminus assumed) | 
5 | 49 | 13.1 | CC(C)C(N)C(=O)C1CCCC1 (stereo not drawn) [Val-cyclopentyl ketone] | 
6 |  | 9.54 | CC[C@@H](C)[C@H](NC(=O)[C@@H]1CCCN1C(=O)[C@@H](N)C(C)C)C(=O)O [Val-Pro-allo-Ile] | 
7 | 0.0179 | 0.000536 | Val-Pro-benzoyl methyl ketone | 
8 |  | 3.08 | CC(C)[C@H](NC(=O)[C@@H]1CCCN1C(=O)[C@@H](N)C(C)(C)C)C(=O)O [t-butyl-Gly-Pro-Val] (H-[Tle]-Pro-Val-OH; N-terminus and C-terminus assumed) | 
9 | 67.8 | 21.6 | CC[C@H](C)[C@H](NC(=O)[C@@H]1CCCN1C(=O)[C@@H](N)COCc1ccccc1)C(=O)O [Ser(Bzl)-Pro-Ile] (H-Ser(Bn)-Pro-Ile-OH; N-terminus and C-terminus assumed) | 
10 | 0.0102 | 0.00105 | Val-Pro-acyloxy methyl ketone | 
11 | 1000 |  | Val-cyclohexyl ketone | 
12 | 0.138 | 0.0373 | Val-Pro-benzothiazol methyl ketone | 

Further lines, the compound ahead of its results:

Row | Compound | IC50 (purified porcine DPIV) [µM] | Ki [1] [µM] | further results
13 | CC[C@H](C)[C@H](N)C(=O)N1CCC[C@H]1C(=O)N[C@H](C(=O)O)C(C)(C)C [Ile-Pro-t-butyl-Gly] (H-Ile-Pro-[Tle]-OH; N-terminus and C-terminus assumed) | 82.3 | 18.9 | 
14 | CC[C@@H](C)[C@H](NC(=O)[C@@H]1CCCN1C(=O)[C@@H](N)Cc1ccc(O)cc1)C(=O)O [Tyr-Pro-allo-Ile] (H-Tyr-Pro-[aIle]-OH; N-terminus and C-terminus assumed) | 64.1 | 18.2 | 
15 | CCC(C)C(N)C(=O)N1CC1 (stereo not drawn) [H-Ile-azididine] |  | 3.1 | 
16 | N[C@@H](CCC(=O)O)C(=O)N1CCSC1 [H-Glu-thiazolidine] |  |  | Imax, inward currents generated by the transport (PepT1 [2]): 35 ± 13 nA
17 | CCCCCC[C@H](N)C(=O)N1CCC[C@H]1C(=O)N[C@H](C(=O)O)[C@@H](C)CC [AOA-Pro-Ile, 2-Amino octanoic acid-Pro-Ile] (H-[Aoc(2)]-Pro-Ile-OH) |  | 12.6 | 
18 | NC(Cc1c[nH]cn1)C(=O)N1CCCC1 (stereo not drawn) [H-His-pyrrolidine] |  | 35 | 
19 | CC[C@H](N)C(=O)N1CCC[C@H]1C(=O)N[C@H](C(=O)O)[C@@H](C)CC [Abu-Pro-Ile] (H-[Abu]-Pro-Ile-OH; N-terminus and C-terminus assumed) | 34.3 |  | 
20 | CCC(C)C(N)C(=O)C1CCCCC1 (stereo not drawn) [Ile-cyclohexyl ketone] | 293 | 56.8 | 
21 | CC[C@H](C)[C@H](N)C(=O)N1CCCC1C#N.O=C(O)C(F)(F)F (stereo partly drawn) [isoleucyl cyano pyrrolidine TFA] |  |  | blood pressure (F344 rats): dose-dependently reduced
22 | Br.CC(=O)OCC(=O)[C@@H]1CCCN1C(=O)[C@@H](NC(=O)[C@H](C)N)C(C)C [Ala-Val-Pro-acyloxy methyl ketone, H-Ala-Val-Pro-CH2O—C(O)CH3*HBr] |  |  | in vivo DPIV-inhibition at tmax, i.v. (plasma DPIV activity; [4]): 89%; in vivo DPIV-inhibition at tmax, p.o. (plasma DPIV activity; oral): 86%
23 | CCC(C)C(N)C(=O)C1CCCC1 (stereo not drawn) [Ile-cyclopentyl ketone, 1-cyclopentyl-3-methyl-1-oxo-2-pentanaminium chloride] |  |  | inhibition at 100 mg/kg (plasma DPIV activity; iv, intra-vasal (intra-arterial) route, read-out: in vivo DPIV-inhibition at tmax, i.v.): 34%; inhibition at 100 mg/kg (plasma DPIV activity; oral, read-out: in vivo DPIV-inhibition at tmax, p.o.): 15%
24 | CC[C@H](C)[C@H](NC(=O)[C@@H]1CCCN1C(=O)[C@@H](N)Cc1ccc(OP(=O)(O)O)cc1)C(=O)O [Tyr(P)-Pro-Ile] (H-[pY]-Pro-Ile-OH; N-terminus and C-terminus assumed) |  |  | in vivo DPIV-inhibition at tmax, p.o. (plasma DPIV activity; oral): no inhibition
25 | CCC[C@H](N)C(=O)N1CCC[C@H]1C(=O)N[C@H](C(=O)O)[C@@H](C)CC [Nva-Pro-Ile] (H-[Nva]-Pro-Ile-OH; N-terminus and C-terminus assumed) | 24.9 | 6.17 | 
26 | NC(CC(=O)O)C(=O)N1CCCC1 (stereo not drawn) [H-Asp-pyrrolidine] |  | 14 | 
27 | Br.CC(C)[C@H](NC(=O)[C@H](C)N)C(=O)N1CCC[C@H]1C(=O)COC(=O)c1ccccc1 [Ala-Val-Pro-benzoyl-methyl ketone, H-Ala-Val-Pro-CH2O—C(O)Ph*HBr] |  |  | in vivo DPIV-inhibition at tmax, i.v. (plasma DPIV activity; [4]): 97%; in vivo DPIV-inhibition at tmax, p.o. (plasma DPIV activity; oral): 76%
28 | N[C@@H](CCC(=O)NO)C(=O)N1CCSC1 [H-Glu(NHOH)-thiazolidine] |  | 1.7 | EC50 (PepT1 [3]): 3180 µM; Imax, inward currents generated by the transport (PepT1 [2]): 42 ± 11 nA
29 | CC[C@H](C)[C@H](NC(=O)[C@@H]1CCCN1C(=O)[C@@H]1CCN1)C(=O)O [Aze-Pro-Ile] (H-[Aze]-Pro-Ile-OH; N-terminus and C-terminus assumed) | 72.8 |  | 
30 | CC[C@@H](C)[C@H](NC(=O)[C@@H]1CCCN1C(=O)[C@@H](N)[C@@H](C)CC)C(=O)O [Ile-Pro-allo-Ile] |  | 5.22 | 
31 | H-Glu(PEG)-Thia |  | 3.11 | EC50 (PepT1 [3]): > 10000 µM
